Source: the supplement of paper PMC11208160

Experiment: recombinant barcode read abundance after kanamycin selection (control-corrected) (log10(CPM+1)); higher = more efficient recombination; sequences stand for … in AGTGCAGAGAAAATCGGCCAGTTTTCTCTGCCTGCAGTCCGCATGCCGT…AGATTTATGCAGCGGACTGCCTTTCTCCCAAAGTGATAAACCGGACAGTATCATGGACCGGTTTTCCCGGTAATCCGTATTTGCAAGGTTGGTTTCACT; site = the 11-nt target
How it was run: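 In a pooled screen in E. coli, targets were paired with target-binding loops of the IS621 bridge RNA. Each oligo carried a promoter, a target, a barcode and the first 104 bridge RNA bases driven by J23119, and was Gibson-cloned into a vector holding the remaining 73 bp and a T7-inducible recombinase before co-electroporation with a donor plasmid. Duplicate platings went onto chloramphenicol/ampicillin LB agar as the control or onto chloramphenicol/ampicillin/kanamycin with 0.1 mM IPTG. Recombination efficiency is the averaged, control-corrected count per million of barcodes at recombinant junctions, given as log10(CPM+1).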
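Also: IS621 recombinase and bridge RNA in Escherichia coli cells.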

Row | Sequence | recombinant barcode read abundance (log10)
1 | TGCCCGCCTTGGGTTCTAACCTGTTGCCT (site AGCCCGCCTAG) | 0.0736
2 | TGCCCGCCTTGGGTTCTAACCTGTTGCCT (site CGCCCGCCTAG) | 0.102
3 | TGCCCGCCTTGGGTTCTAACCTGTTGCCT (site GGCCCGCCTAG) | 0.757
4 | TGCCCGCCTTGGGTTCTAACCTGTTGCCT (site TGCCCGCCTAG) | 0.292
5 | TGCCGACCTTGGGTTCTAACCTGTTGCCT (site TGCCGACCTAG) | 0.321
6 | TGCCGACCTTGGGTTCTAACCTGTTGCCT (site TGCGGAGCTAG) | 0.185
7 | TGCCTAGCTTGGGTTCTAACCTGTTGCCT (site TGACTAGCTAG) | 0.0824
8 | TGCCTAGCTTGGGTTCTAACCTGTTGCCT (site TGCCTAGCTAG) | 0.24
9 | TGCCTAGCTTGGGTTCTAACCTGTTGCCT (site TGGCTAGCTAG) | 0.11
10 | TGCCTAGCTTGGGTTCTAACCTGTTGCCT (site TGTCTAGCTAG) | 0.0825
11 | TGCCTATCTTGGGTTCTAACCTGTTGCTT (site ATGTCTACTCT) | 0.325
12 | TGCCTATCTTGGGTTCTAACCTGTTGCTT (site TGCCTATCTAA) | 0.52
13 | TGCCTGCCTTGGGTTCTAACCTGTTGCCT (site AAGACAACTCC) | 0.06
14 | TGCCTGCCTTGGGTTCTAACCTGTTGCCT (site TGCCTGCCTAG) | 0.287
15 | TGCGCCTCTTGGGTTCTAACCTGTTGCTG (site TACGCCTCTTA) | 0.108
16 | TGCGCCTCTTGGGTTCTAACCTGTTGCTG (site TGCGCCTCTCA) | 1.26
17 | TGCGCTACTTGGGTTCTAACCTGTTGCCT (site TGCGCAACTAG) | 0.0205
18 | TGCGCTACTTGGGTTCTAACCTGTTGCCT (site TGCGCCACTAG) | 0.0462
19 | TGCGCTACTTGGGTTCTAACCTGTTGCCT (site TGCGCGACTAG) | 0.141
20 | TGCGCTACTTGGGTTCTAACCTGTTGCCT (site TGCGCTACTAG) | 0.25
21 | TGCGGAGCTTGGGTTCTAACCTGTTGCCG (site GATTATACTAA) | 0.0782
22 | TGCGGAGCTTGGGTTCTAACCTGTTGCCG (site TGCGGAGCTCG) | 0.726
23 | TGCGTCCCTTGGGTTCTAACCTGTTGCCT (site TGAGTCCCTAG) | 0.405
24 | TGCGTCCCTTGGGTTCTAACCTGTTGCCT (site TGCGTCCCTAG) | 0.291
25 | TGCGTCCCTTGGGTTCTAACCTGTTGCCT (site TGGGTCCCTAG) | 0.117
26 | TGCGTCCCTTGGGTTCTAACCTGTTGCCT (site TGTGTCCCTAG) | 0.0158

Row | Sequence | recombinant barcode read abundance (log10)
27 | TGCTCCTCTTGGGTTCTAACCTGTTGCCT (site AGCTCCTCTAG) | 0.0656
28 | TGCTCCTCTTGGGTTCTAACCTGTTGCCT (site CGCTCCTCTAG) | 0.153
29 | TGCTCCTCTTGGGTTCTAACCTGTTGCCT (site GGCTCCTCTAG) | 0.109
30 | TGCTCCTCTTGGGTTCTAACCTGTTGCCT (site TGCTCCTCTAG) | 0.274
31 | TGCTTCCCTTGGGTTCTAACCTGTTGCGG (site TGCTTCCCTCC) | 0.594
32 | TGCTTCCCTTGGGTTCTAACCTGTTGCGG (site TGGTGCCCTCC) | 0.114
33 | TGGACGACTTGGGTTCTAACCTGTTGCTT (site GATCGAGCTCT) | 0.0173
34 | TGGACGACTTGGGTTCTAACCTGTTGCTT (site TGGACGACTAA) | 0.592
35 | TGGACGCCTTGGGTTCTAACCTGTTGCCT (site TGGACGCCTAG) | 0.252
36 | TGGACGCCTTGGGTTCTAACCTGTTGCCT (site TGGACGTCTAG) | 0.0267
37 | TGGAGCACTTGGGTTCTAACCTGTTGCCT (site TGGAACACTAG) | 0
38 | TGGAGCACTTGGGTTCTAACCTGTTGCCT (site TGGACCACTAG) | 0.107
39 | TGGAGCACTTGGGTTCTAACCTGTTGCCT (site TGGAGCACTAG) | 1.11
40 | TGGAGCACTTGGGTTCTAACCTGTTGCCT (site TGGATCACTAG) | 0.0861
41 | TGGAGCCCTTGGGTTCTAACCTGTTGCAA (site TGGAGCCCTAT) | 0.0946
42 | TGGAGCCCTTGGGTTCTAACCTGTTGCAA (site TGGAGCCCTCT) | 0.0367
43 | TGGAGCCCTTGGGTTCTAACCTGTTGCAA (site TGGAGCCCTGT) | 0.263
44 | TGGAGCCCTTGGGTTCTAACCTGTTGCAA (site TGGAGCCCTTT) | 0.155
45 | TGGAGCCCTTGGGTTCTAACCTGTTGCAT (site TGGAGCCCTAT) | 0.211
46 | TGGAGCCCTTGGGTTCTAACCTGTTGCAT (site TGGAGCCCTCT) | 0.053
47 | TGGAGCCCTTGGGTTCTAACCTGTTGCAT (site TGGAGCCCTGT) | 0.0522
48 | TGGAGCCCTTGGGTTCTAACCTGTTGCAT (site TGGAGCCCTTT) | 0.15
49 | TGGATGCCTTGGGTTCTAACCTGTTGCCT (site TGAATGACTAG) | 0.0485
50 | TGGATGCCTTGGGTTCTAACCTGTTGCCT (site TGGATGCCTAG) | 0.884
51 | TGGATTGCTTGGGTTCTAACCTGTTGCCT (site TGGATTCCTAG) | 0.0162
52 | TGGATTGCTTGGGTTCTAACCTGTTGCCT (site TGGATTGCTAG) | 0.74

Row | Sequence | recombinant barcode read abundance (log10)
53 | TGGCACCCTTGGGTTCTAACCTGTTGCGG (site TGGAACCCTCC) | 0.129
54 | TGGCACCCTTGGGTTCTAACCTGTTGCGG (site TGGCACCCTCC) | 2.42
55 | TGGCACTCTTGGGTTCTAACCTGTTGCTT (site AGGCACTCTCA) | 0.177
56 | TGGCACTCTTGGGTTCTAACCTGTTGCTT (site TGGCACTCTAA) | 1.02
57 | TGGCCAACTTGGGTTCTAACCTGTTGCGT (site TAGTCAACTAC) | 0.434
58 | TGGCCAACTTGGGTTCTAACCTGTTGCGT (site TGGCCAACTAC) | 1.84
59 | TGGCGTCCTTGGGTTCTAACCTGTTGCCT (site TGGAGTCCTAG) | 0.0306
60 | TGGCGTCCTTGGGTTCTAACCTGTTGCCT (site TGGCGTCCTAG) | 0.963
61 | TGGCGTCCTTGGGTTCTAACCTGTTGCCT (site TGGGGTCCTAG) | 0.0381
62 | TGGCGTCCTTGGGTTCTAACCTGTTGCCT (site TGGTGTCCTAG) | 0.116
63 | TGGGACTCTTGGGTTCTAACCTGTTGCCT (site TGAGACTCTAG) | 2.44
64 | TGGGACTCTTGGGTTCTAACCTGTTGCCT (site TGCGACTCTAG) | 0.00712
65 | TGGGACTCTTGGGTTCTAACCTGTTGCCT (site TGGGACTCTAG) | 2.64
66 | TGGGACTCTTGGGTTCTAACCTGTTGCCT (site TGTGACTCTAG) | 0.108
67 | TGGGCACCTTGGGTTCTAACCTGTTGCTT (site GGGGCACCTTA) | 0.175
68 | TGGGCACCTTGGGTTCTAACCTGTTGCTT (site TGGGCACCTAA) | 1.37
69 | TGGGGTACTTGGGTTCTAACCTGTTGCCT (site TGGAGTACTAG) | 0.141
70 | TGGGGTACTTGGGTTCTAACCTGTTGCCT (site TGGCGTACTAG) | 0.097
71 | TGGGGTACTTGGGTTCTAACCTGTTGCCT (site TGGGGTACTAG) | 1.11
72 | TGGGGTACTTGGGTTCTAACCTGTTGCCT (site TGGTGTACTAG) | 0.177
73 | TGGGTCCCTTGGGTTCTAACCTGTTGCTT (site TGAGTCCCTTA) | 0.272
74 | TGGGTCCCTTGGGTTCTAACCTGTTGCTT (site TGGGTCCCTAA) | 2.1
75 | TGGTACGCTTGGGTTCTAACCTGTTGCCT (site TGGTACGCTAG) | 1.45
76 | TGGTACGCTTGGGTTCTAACCTGTTGCCT (site TGGTCCGCTAG) | 0.235
77 | TGGTACGCTTGGGTTCTAACCTGTTGCCT (site TGGTGCGCTAG) | 0.15
